Results: patent US20230123334A1, “AMINO LIPID COMPOUND, PREPARATION METHOD THEREFOR, AND APPLICATION THEREOF” (SHENZHEN SHENXIN BIOTECHNOLOGY CO., LTD., priority 2020, published 2023)

Key:
Format in all cases: cell-based
cardiomyocytes [1] = experiment: Screening as mRNA vectors in cardiomyocytes; conditions: 50 ng EGFP mRNA per well
Description: Cell line: cardiomyocytes (obtained from induced differentiation of hESC according to reported methods: J Mol. Cell. Cardiol. 2011, 51, 288-298)
(§1) Medium: DMEM supplemented with 10% fetal bovine serum (Invitrogen)
(§2) Mode of screening: cell transfection on 96-well plates
(§3) Detection (readout): percentage of the number of GFP fluorescent cells relative to the total number of cells (the total number of cells was determined using nucleus dye Hoechst). Lipofectamine Stem (Invitrogen) was used as the positive control, according to the manufacturer's instructions.
Method: the experimental method was basically the same with Example 4, and the mass of EGFP mRNA for transfection was 50 ng per well.

cardiomyocytes [2] = experiment: Screening as DNA vectors in cardiomyocytes; set-up: concentration or dose not given beside the values; conditions: method as Example 4
Description: Cell line: cardiomyocytes (obtained from induced differentiation of hESC according to reported methods: J. Mol. Cell. Cardiol. 2011, 51, 288-298)
as §1, §2, §3
Method: the experimental method was basically the same with Example 4.

MCF7 cells [3] = experiment: Transfection of MCF7 cell line, DNA vectors; set-up: concentration or dose not given beside the values; conditions: plasmid DNA, GFP cells / total cells
How it was run: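 MCF7 cells in DMEM with fetal bovine serum were transfected in 96-well format. Read-out was the percentage of GFP-fluorescent cells among total cells counted by Hoechst nuclear stain. Lipofectamine2000 served as positive control.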

[4] = tested on: embryonic stem cells (hESC2); experiment: Screening as mRNA vectors in embryonic stem cells; conditions: 50 ng EGFP mRNA per well
Description: (§4) Cell line: embryonic stem cells (hESC2, cultured according to reported methods: Stem Cells, 2005, 23, 544-549)
(§5) Medium: mTeSR1 (STEMCELL)
Mode of screening: cell transfection on 96-well plate
(§6) Detection (readout): percentage of the number of GFP fluorescent cells relative to the total number of cells. Lipofectamine Stem was used as the positive control.
Method: the experimental method was basically the same with Example 10, and the mass of EGFP mRNA for transfection was 50 ng per well.

[5] = tested on: embryonic stem cells (hESC2); experiment: Screening as DNA vectors in embryonic stem cells, flow cytometry; conditions: 75 ng plasmid DNA, 48 hours after transfection, flow cytometer
Source text: as §4, §5, §2, §6
Method: an 8-channel pipette was used for sample addition. The contents shown were for a single well of a 96-well flat plate.
1. Stem cells were cultured to 3-5×10^4 cells per well in a 96-well plate treated with matrigel.
2. The compound (0.01 mmol) prepared in Example 1 was dissolved in 1 mL of anhydrous ethanol. After ultrasonically dissolved, 10 μL of the resultant amino lipid solution in ethanol was taken and mixed with 5 μL of DOPE solution in ethanol ([…]). The obtained mixture was then added with 35 μL of 0.2 M sodium acetate buffer (pH 5.6), and vortexed at a constant rotating speed for 30 s. Then, 4 μL was taken from the obtained product and added to 46 μL of 0.02 M sodium acetate buffer (pH 5.6), and vortexed at a constant rotating speed for 30 s to form a liposome solution. 5 μL of this liposome solution was mixed with 75 ng of plasmid DNA (pSin-EGFP-IRES-Puro) dissolved in 5 μL of 0.02 M sodium acetate buffer, and allowed to stay at room temperature for 30 min to form a lipid/DNA transfection complex.
3. 10 μL of the lipid/DNA transfection complex was incubated at room temperature for 30 min, followed by addition of 90 μL mTeSR1 medium was added and mixing with a pipette. 100 μL of the mixture was added to separate wells of a 96-well culture plate and placed in an incubator containing 5% CO2 at 37° C.
4. 48 hours after transfection, the cells were digested with 0.05% Trypsin-EDTA. The cells were resuspended in a PBS buffer and filtered. The cell suspension was placed in a flow cytometer and the number of GFP-expressing cells in no less than 2000 cells was measured so as to obtain the absolute efficiency of cell transfection. The relative efficiency of cell transfection was obtained by comparing the cell transfection efficiency with the positive control Lipofectamine Stem.

MCF7 cells [6] = experiment: Transfection of MCF7 cell line, mRNA vectors; conditions: 50 ng EGFP mRNA per well
How it was run: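 MCF7 cells in DMEM with fetal bovine serum were transfected with 50 ng EGFP mRNA per well. Read-out was the percentage of GFP-positive cells among total Hoechst-stained nuclei, with Lipofectamine2000 as positive control.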

Hela cells [7] = experiment: Transfection of Hela cell line, DNA vectors; conditions: 75 ng plasmid DNA, GFP cells / total cells
How it was run: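 Amino lipid/DOPE liposomes in sodium acetate pH 5.6 were complexed with 75 ng psin-EGFP-IRES-Puro plasmid for 30 min at room temperature, then mixed with 3-5×10^4 Hela cells in DMEM/10% FBS at 37° C. Hoechst stain after 20-24 h, imaging after a further 20-24 h. Efficiency = GFP-positive cells / total nuclei.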

Hela cells [8] = experiment: Transfection of Hela cell line, mRNA vectors; conditions: 50 ng EGFP mRNA per well
How it was run: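 HeLa cells in DMEM with 10% FBS transfected with 50 ng EGFP mRNA per well. Readout is percentage of GFP-positive cells among total cells counted by Hoechst nuclear stain; Lipofectamine2000 served as positive control.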

Row | Structure (SMILES) | Absolute mRNA transfection efficiency in cardiomyocytes (cardiomyocytes [1]) [%] | Absolute DNA transfection efficiency in cardiomyocytes (cardiomyocytes [2]) [%] | Absolute DNA transfection efficiency in MCF7 cells (MCF7 cells [3]) [%] | Absolute mRNA transfection efficiency in embryonic stem cells [4] [%] | Absolute DNA transfection efficiency in embryonic stem cells [5] [%] | Absolute mRNA transfection efficiency in MCF7 cells (MCF7 cells [6]) [%] | Absolute DNA transfection efficiency in Hela cells (Hela cells [7]) [%] | Absolute mRNA transfection efficiency in Hela cells (Hela cells [8]) [%]
1 | CCCCCCCCCCCCSc1nc(NCCN2CCN(C)CC2)nc(SCCCCCCCC)n1 [Compound S8S12D5] | 2.5 | 2.4 | 26.3 | 24.9 | 1.7 | 32.6 | 12.4 | 12.4
2 | CCCCCCCCCCCCSc1nc(NCCCN(C)C)nc(SCCCCCCCC)n1 [Compound S8S12D6] | 44.9 | 1.6 | 34.4 | 7.1 | 3.3 | 50.0 | 6.3 | 6.3
3 | CCCCCCCCCCCCSc1nc(NCCCN2CCOCC2)nc(SCCCCCCCC)n1 [Compound S8S12D8] | 0.7 | 1.9 | 37.7 | 0.7 | 5.9 | 14.0 | 17.2 | 17.2
4 | CCCCCCCCCCCCSc1nc(NCCCN2CCN(C)CC2)nc(SCCCCCCCC)n1 [Compound S8S12D9] | 14.0 | 1.0 | 13.1 | 16.3 | 2.9 | 5.3 | 1.7 | 1.7
5 | CCCCCCCCCCCCSc1nc(NCC2CCN(C)CC2)nc(SCCCCCCCC)n1 [Compound S8S12D10] | 25.6 | 1.0 | 37.7 | 24.6 | 2.6 | 50.2 | 11.7 | 11.7
6 | CCCCCCCCCCCNc1nc(NCCN2CCCC2)nc(SCCCCCCCCC)n1 [Compound S9N11D3] | 16.7 | 0.4 | 26.6 | 1.7 | 0.4 | 7.9 | 21.8 | 21.8
7 | CCCCCCCCCCCNc1nc(NCCN2CCN(C)CC2)nc(SCCCCCCCCC)n1 [Compound S9N11D5] | 18.0 | 2.5 | 17.8 | 3.3 | 3.0 | 18.0 | 22.5 | 22.5
8 | CCCCCCCCCCCNc1nc(NCCCN(C)C)nc(SCCCCCCCCC)n1 [Compound S9N11D6] | 5.0 | 1.9 | 32.6 | 5.8 | 1.4 | 37.2 | 27.7 | 27.7
9 | CCCCCCCCCCCNc1nc(NCCCN2CCOCC2)nc(SCCCCCCCCC)n1 [Compound S9N11D8] | 4.4 | 0.8 | 13.1 | 5.9 | 0.6 | 2.7 | 13.9 | 13.9
10 | CCCCCCCCCCCNc1nc(NCCCN2CCN(C)CC2)nc(SCCCCCCCCC)n1 [Compound S9N11D9] | 45.4 | 1.1 | 27.3 | 2.9 | 6.6 | 11.8 | 24.3 | 24.6
11 | CCCCCCCCCCCNc1nc(NCC2CCN(C)CC2)nc(SCCCCCCCCC)n1 [Compound S9N11D10] | 45.3 | 2.7 | 36.6 | 2.6 | 2.2 | 20.2 | 21.2 | 21.3
